This assay deals with T1, ERR-α (Homo sapiens, UniProt P11474).
T1 construct: made in house; host or cells: Spodoptera frugiperda (Sf9) insect cells, baculovirus
T1 sequence (P11474 with tags, fused parts or gaps): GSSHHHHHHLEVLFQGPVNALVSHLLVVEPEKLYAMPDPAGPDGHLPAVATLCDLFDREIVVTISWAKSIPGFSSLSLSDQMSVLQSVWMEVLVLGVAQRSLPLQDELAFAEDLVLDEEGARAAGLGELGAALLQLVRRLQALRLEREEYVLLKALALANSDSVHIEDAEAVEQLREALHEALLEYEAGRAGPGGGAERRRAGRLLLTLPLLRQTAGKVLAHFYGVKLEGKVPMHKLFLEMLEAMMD
Briefly: LC/MS kinetics of association and dissociation for ligands forming a covalent bond to Cys325 of ERR-α. Type of assay: binding. The settings on record: dissociation rate by LC/MS with 20-fold excess Compound 2 as competing ligand; 37° C. From the text:
The progress of the reaction was also expressed as a fraction of the area observed for the complex of ERR-α and the competing ligand over the sum of total area for the complex of ERR-α with the ligand and the complex of ERR-α with the competing ligand.
where k is the apparent rate constant.
`COc1cc(/C=C2\SC(=O)NC2=O)ccc1Oc1ccc(C#N)cc1C(F)(F)F` [Compound 1] showed a kd of 1.1e-05 s⁻¹. In the case of `COc1cc(/C=C2\SC(N3CCN(C)CC3)=NC2=O)ccc1Oc1ccc(C#N)cc1C(F)(F)F` [Compound 3], the kd amounted to 1.53e-05 s⁻¹. The figure for `CN1CCN(C2=NC(=O)/C(=C/c3ccc(Oc4ccc(C#N)cc4C(F)(F)F)c(F)c3)S2)CC1` [Compound 4] is 2.19e-05 s⁻¹; for `COc1cc(/C=C2\SC(N)=NC2=O)ccc1Oc1ccc(C#N)cc1C(F)(F)F` [Compound 5] it is 2.05e-05 s⁻¹.

(Values after patent US8927297B2, “Methods to measure dissociation rates for ligands that form reversible covalent bonds” (Janssen Pharmaceutica N.V., priority 2009, dated 2015).)
